ChEMBL document CHEMBL4270512, “Harnessing pyrrolidine iminosugars into dimeric structures for the rapid discovery of divalent glycosidase inhibitors” (Eur J Med Chem, 2018)

Key:
[1] = Uncompetitive inhibition of bovine kidney alpha-fucosidase using p-nitrophenyl glycopyranoside as substrate preincubated for 5 mins followed by substrate addition and measured after 20 mins by Lineweaver-Burk plot analysis; set-up: species or system Bos taurus
[2] = Competitive inhibition of bovine kidney alpha-fucosidase using p-nitrophenyl glycopyranoside as substrate preincubated for 5 mins followed by substrate addition and measured after 20 mins by Lineweaver-Burk plot analysis; set-up: species or system Bos taurus

`C#C[C@H]1[C@H](O)[C@H](O)[C@H](C)N1C(=O)OC(C)(C)C` gave a Ki [1] of 1000 pM and a Ki [2] of 200 pM.
